# Tests used:
# [1] = test system: activated PBL; assay: α-tubulin polymerization assay in PBL activated with anti-CD3 and anti-CD28 antibodies; format: cell-based, human; settings: PBL activated 24 hrs with anti-CD3 and anti-CD28, paclitaxel for one hour
# Method: (§1) All primary cells were cultured in RPMI 1640 medium with 20% fetal bovine serum (regular medium) at a density of 2-5×10^6 cell/ml. In some cases, the PBL were stimulated for 24 hours with 1 μg/ml anti-CD3 and anti-CD28 antibodies (Alexis, San Diego, Calif.) prior to immunoblot analysis.
# (§2) α-tubulin Polymerization Assay.
# After a brief but vigorous vortex, the lysates were incubated at room temperature for 5 minutes, and then centrifuged at 16,000×g for 5 minutes to separate the soluble from polymerized α-tubulin. The supernatant and pellet fractions were resolved on 10-20% pre-cast tris-glycine gels (Novex, San Diego, Calif.) and then subjected to immune blotting with a specific anti-α-tubulin antibody.
# The cytosolic (S) monomeric and particulate-bound (P) polymerized forms of α-tubulin were separated by centrifugation from drug-treated cells and assayed by immunoblotting.
# [2] = test system: CLL cells; assay: α-tubulin polymerization assay in CLL cells; format: cell-based, human; settings: paclitaxel
# Method: The Institutional Review Board of the University of California, San Diego approved this study, and all patients gave informed written consent to participation. Subjects had CLL according to National Cancer Institute (NCI) criteria of any Rai stage. None of the patients were in active chemotherapeutic treatments. Flow cytometric analysis determined that all specimens contained more than 90% CD5+ CD19+ B cells.
# Peripheral blood from CLL patients or normal donors was layered on top of Ficoll-Paque Plus (Pharmacia, NJ) and centrifuged at 1200×g for twenty minutes. The enriched peripheral blood mononuclear cells (PBL) were washed several times with Ca++, Mg++-free HBSS.
# as §1, §2
# For each data point, 2×10^6 of cells were incubated in 2ml of regular medium containing drugs for various periods of time. The cells were then washed twice at room temperature, and resuspended in 50 μl of α-tubulin extraction buffer (1 mM MgCl2, 2 m MEGTA, 0.5% NP-40, 20 mM Tris-HCl, pH=6.8) supplemented with 2 mM phenylmethysulfonyl fluoride, and a protease inhibitor cocktail (Sigma). […]
smiles,measurement,setting,value
CC(=O)O[C@H]1C(=O)[C@@]2(C)[C@H]([C@H](OC(=O)c3ccccc3)[C@]3(O)C[C@H](OC(=O)[C@H](O)[C@@H](NC(=O)c4ccccc4)c4ccccc4)C(C)=C1C3(C)C)[C@]1(OC(C)=O)CO[C@@H]1C[C@@H]2O [paclitaxel],α-tubulin in the particulate fraction after treatment,[1],shift of α-tubulin to the particulate-bound fraction
same,α-tubulin relocalization to the particulate fraction after treatment,[2],nearly complete relocalization of α-tubulin to the particulate fraction
